Test system: E. coli
Assay: Antagonization assay by lipopolysaccharide (LPS)
Format: cell-based
Set-up: key: +: grown; −: not grown
Protocol: darobactin A is a large compound of 966 Da molecular weight. The limit for penetration into Gram-negative bacteria is around 500 Da. It therefore seemed possible that darobactin A acted on the cell surface, similarly to polymyxin which targets lipopolysaccharide (LPS). In order to test this, activity of darobactin A was tested in the presence of LPS. E. coli was inoculated into 5 mL MHIIB, and grown until the cell density reach to OD600=0.1-0.9. The cell suspension was diluted to OD600=0.002 with 2×MHIIB. 40 μL of LPS solution (final concentration range from 0 to 800 μg/mL) and 2 μL of 2×MIC antibiotic solution (final concentration: polymyxin; 0.5 μg/mL, ampicillin; 16 μg/mL, darobactin A; 16 μg/mL) were mixed in a 96-well plate and fill up to 50 μL by sterile dI water. LPS and antibiotic solutions were mixed with 50 μL of E. coli cell suspensions, and incubated at 37° C. for 20 hours. The growth of E. coli was determined visually (Table 3).

CC1(C)S[C@@H]2[C@H](NC(=O)[C@H](N)c3ccccc3)C(=O)N2[C@H]1C(=O)O [Ampicillin]
growth of E. coli with 2× MIC antibiotic (LPS 0 μg/mL): − | growth of E. coli with 2× MIC antibiotic (LPS 3.13 μg/mL): − | growth of E. coli with 2× MIC antibiotic (LPS 6.25 μg/mL): − | growth of E. coli with 2× MIC antibiotic (LPS 800 μg/mL): −

Polymyxin B
growth of E. coli with 2× MIC antibiotic (LPS 0 μg/mL): − | growth of E. coli with 2× MIC antibiotic (LPS 3.13 μg/mL): − | growth of E. coli with 2× MIC antibiotic (LPS 6.25 μg/mL): + | growth of E. coli with 2× MIC antibiotic (LPS 800 μg/mL): +
